The values that follow come from EP0103381B1, “Substituted anthra(1,9-cd)pyrazol-6(2H)-ones” (WARNER-LAMBERT COMPANY, priority 1982, dated 1984).

Assay [1] has as its system B16 Melanoma (BDF1). Kind of assay: broad spectrum antitumor activity in mice, B16 melanoma (BDF1). The format is in vivo. Conditions: IP/IP. From the text: (§1) Broad Spectrum Antitumor Activity^* of 2-[2-(Diethylamino)ethyl]-7,10-dihydroxy-5-[[2-[(2-hydroxyethyl)amino]ethyl]amino]anthra[1-9-cd]pyrazol-6(2H)-one Dihydrochloride in Mice
In assay [2] the test system is Penicillium avellaneum. As to the kind of experiment: agar plate paper-disc inhibition zone screening. The format is cell-based. Conditions: Hamigera avellanea; Dose 3.0 mg/ml; read-out: Inhibition Zone Diameter mm (Dose mg/ml) P. Avellaneum. The procedure, abridged:
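Mycelia and spores from a six-day 28°C agar culture, suspended in saline with 0.05% Tween 80 at 20% transmittancy, were seeded into molten agar trays. Compounds at 3,000, 1,000, 500, 100 and 10 mcg/ml (solvent <10%) were applied on 12.7 mm paper discs. After at least 20-24 h incubation, inhibition zone diameter was measured in mm.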

For assay [3], the system named is HCT-8 (human colon adenocarcinoma) cells. Kind of assay: in vitro activity against human colon adenocarcinoma (HCT-8), cell count. The format is cell-based. Conditions: Homo sapiens; HCT-8 cells, 60-65 hrs with compound; molar quantity of drug required to kill 50% of the tumor cells; read-out: ID50 Molar. Summed up: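 HCT-8 cells seeded at ~30,000 cells/ml in RPMI 1640 + 10% FCS, grown 48 hrs at 37°C, then exposed to compound 60-65 hrs. Lysed cells counted by Coulter counter; activity as percent of controls, reported as ID50 (molar quantity killing 50% of cells).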

Assay [4] has as its system M5076 Ovary. As to the kind of experiment: broad spectrum antitumor activity in mice, M5076 ovary. The format is in vivo. Conditions: IP/IP.
Text: as §1

Assay [5] has as its system Escherichia coli. As to the kind of experiment: agar plate paper-disc inhibition zone screening. Conditions: Dose 0.5 mg/ml, read-out: Inhibition Zone Diameter mm (Dose mg/ml) E. Coli. The format is cell-based. The procedure, abridged: (§2)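 Inoculum: saline suspension, 20-35% transmittancy, in molten agar. Discs 12.7 mm, compound 3,000/1,000/500/100/10 mcg/ml, solvent <10%. 37°C, 18-20 h; zone diameter in mm.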

In assay [6] the test system is Bacillus subtilis. Kind of assay: agar plate paper-disc inhibition zone screening. The format is cell-based. The note with it: Dose 1.0 mg/ml, read-out: Inhibition Zone Diameter mm (Dose mg/ml) B. Subtilis. The procedure, abridged:
as §2

The test system of assay [7] is Aerobacter aerogenes. As to the kind of experiment: agar plate paper-disc inhibition zone screening. The format is cell-based. The note with it: Klebsiella aerogenes; Dose 1.0 mg/ml; read-out: Inhibition Zone Diameter mm (Dose mg/ml) A. Aerogenes. The procedure, abridged: as §2
The subject of assay [8] is Streptococcus faecalis. As to the kind of experiment: agar plate paper-disc inhibition zone screening. Format: cell-based. Conditions: Enterococcus faecalis; Dose 1.0 mg/ml; read-out: Inhibition Zone Diameter mm (Dose mg/ml) S. Faecalis. The procedure, abridged: as §2
Assay [9] deals with lymphocytic leukemia P388. As to the kind of experiment: in vivo lymphocytic leukemia P388 test. Set-up: species or system mice. The note with it: Mus musculus, P388, ip, 720 h, two single doses four days apart, read-out: T/C × 100 (Percent). The procedure, abridged:
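Efficacy was judged from the treated/control survival-time ratio over 30 days (T/C×100 >125% as criterion). Mice (CD2F, 6–7/group) received i.p. P388 ascites cells, then compound i.p. at varied doses twice, four days apart.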

Regarding `CCN(CC)CCn1nc2c3c(c(NCCNCCO)ccc31)C(=O)c1c(O)ccc(O)c1-2` [Example 28, 2-[2-(Diethylamino)ethyl]-7,10-dihydroxy-5-[[2-[(2-hydroxyethyl)amino]ethyl]amino]anthra[1,9-cd]pyrazol-6(2H)-one], the “T/C × 100 (Percent)” value worked out at 151% in [1] (Q01D × 09, Dose 4 mg/kg); 176% in assay [1] (Q01D × 09, Dose 8 mg/kg); 143% in assay [4] (Q04D × 04, Dose 1.25 mg/kg); 233% in assay [4] (Q04D × 04, Dose 2.5 mg/kg); 186% in assay [4] (Q04D × 04, Dose 5 mg/kg); 260% in assay [4] (Q04D × 04, Dose 10 mg/kg). Also, the zone of inhibition at 3000 µg/mL in assay [2] came to 0 mm. Further, the IC50 in assay [3] was 270 nM. Further, the zone of inhibition at 500 µg/mL in assay [5] stood at 14 mm. In addition, the values for the zone of inhibition at 1000 µg/mL in assay [6], in assay [7] and in assay [8] were 15 mm, 14 mm and 14 mm, respectively. Also, in assay [9] (P388, Dose 0.78 mg/kg intraperitoneally), the response vs control in vivo at 0.78 mg/kg came to 140%. Further, the response vs control in vivo at 1.56 mg/kg in assay [9] (P388, Dose 1.56 mg/kg intraperitoneally) is 148%. For the same molecule, the response vs control in vivo at 3.12 mg/kg in [9] (P388, Dose 3.12 mg/kg intraperitoneally) turned out to be 164%. Besides, the response vs control in vivo at 6.25 mg/kg in [9] (P388, Dose 6.25 mg/kg intraperitoneally) worked out at 180%.
